Reference: patent US7553667B2, “Regulation of gene expression using chromatin remodelling factors” (Her Majesty the Queen in right of Canada as represented by …, priority 2002, dated 2009)

Assays:
BnSCL1 gene expression = test: Quantitative one-step RT-PCR of BnSCL1 expression in treated seedlings; assay type: in vivo, Brassica napus; settings: 10 mM for 24 h, then 2,4-D 10^-6 to 10^3 μM
Experimental: In exogenous applied auxin treatments, four-leaf stage seedlings grown at 20° C. were treated with a foliar spray containing 1 mM 2,4-D and 50 mM sodium phosphate, pH 7.5. The four leaves were collected at 30 min, 60 min and 180 min after the first foliar application of 2,4-D. For the measurement of response of shoots and roots to auxin, sterilized seeds were germinated on plates in a growth chamber with continuous light at 20° C., and 10 dpg seedlings were supplied with varied concentration of 2,4-D. In the auxin transport inhibition experiments, 9 dpg seedlings were incubated in the medium supplemented with 50 μM NPA dissolved in 0.1% DMSO for 24 h before the 2,4-D treatment. For the HDAC inhibitor treatments, 10 mM sodium butyrate was added onto the growth medium and incubated for 24 h followed by exogenous 2,4-D application at varied concentrations.
Total RNA extracted as described above was treated with Amplification Grade Deoxyribonuclease I (GibcoL BRL) following the manufacture's instructions. The RNA samples were then directly used for reverse transcription prior to amplification without purification. The RT-PCR was quantitatively performed and completed in a one-step reaction using […] One-Step RT-PCR System (GibcoL BRL) as described by Gao et al. (2002). Gene-specific sense and anti-sense primers used to generate a 960 bp fragment of Brassica napus Actin, as an internal standard, were as described in Gao et al., (2002). Gene-specific primers for the generation of BnSCL1, BnIAA1 and BnIAA12 fragments were as follows: […]

[1] = test system: auxin-inducible GUS expression; settings: seedlings, up to 1 mM for 24 h; cited from earlier work

## CCCC(=O)[O-].[Na+] [sodium butyrate]
BnSCL1 gene expression
  BnSCL1 expression profile in shoots and roots in response to auxin after HDAC inhibition: upregulated by auxin at concentration of 1 pM and downregulated by auxin at higher concentrations
[1]
  effect on auxin-inducible GUS expression: no effect
